What was measured:
[1] = target: BTK (Bruton's agarnrnaglobulinaemia tyrosine kinase) (Homo sapiens, UniProt Q06187); assay: poly (Glu, Tyr) 4:1 ELISA, BTK; format: biochemical
Procedure: (§1) To further examine the inhibition characteristics of DBH (and its variants) to a variety of cellular components, a poly (Glu, Tyr) 4:1 ELISA was performed. Hymenialdisine (H), DBH (as marine sponge extracts: see Chipman and Faulkner, 1997), and three variant forms of synthetic DBH: the free base form of DBH (DBH-2FB), a trifluoroacetic acid salt form of DBH (DBH-2S), and a methanesulfonic acid salt form of DBH (DBH 1) were solubilized in DMSO, and tested for the ability to inhibit; ZAP-70 (ζ-associated polypeptide of 70 kDa) protein tyrosine kinase, BTK (Bruton's agarnrnaglobulinaemia tyrosine kinase), JAK3 (Janus kinase 3) protein tyrosine kinase, LCK (Lymphoid T-cell protein tyrosine kinase), and IGFR (Insulin-like growth factor receptor) protein tyrosine kinase.
(§2) Maxisorb microtiter plates (Nalge Nunc International, Rochester, N.Y.) were coated with 1 mg/ml Poly(Glu,Tyr) 4:1 (Sigma, St. Louis, Mo.) solubilized in phosphate buffered saline (PBS), 0.02% sodium azide. On the day of the assay, microtiter plates were washed 4× with TBS-Tween (25 mM Tris pH 8.0, 150 mM NaCl, 0.05% Tween 20) using a Skatron plate washer (Skatron Instruments, Sterling, Va.). 200 μl of sterile blocking buffer (3% BSA in PBS, 0.02% sodium azide) was added to each well, and the microtiter plates were incubated at 37° C. for 1 hour. The blocking buffer was removed, the plates washed, and various concentrations of inhibitor were added in a 20 μl volume to the wells. 60 μl of the appropriate substrate mix was then added. Substrate mixes were prepared as described in Table 2:
(§3) Following addition of the substrate mix, 20 μl of the test protein tyrosine kinase (in 1× assay buffer) was added. Kinase reactions were incubated 30 min at 37° C., followed by washes in the Skatron plate washer. 100 μl of biotinylated PT-66 anti-phosphotyrosine monoclonal antibody (Sigma, St. Louis, Mo.) (diluted 1:4000 in 0.5% BSA, sterile-filtered TBS) was added to each well, and incubated for an additional 30 minutes at 37° C. […] The samples were then read at 450 nm in a plate reader.

[2] = target: IGFR (Insulin-like growth factor receptor) protein tyrosine kinase (Homo sapiens, UniProt P08069); assay: poly (Glu, Tyr) 4:1 ELISA, IGFR; format: biochemical
Procedure: as §1, §2, §3

[3] = system: collagenase 1 (MMP1) mRNA; assay: northern blot, IL-1β-induced mRNA in human articular chondrocytes: collagenase 1; format: cell-based; conditions: 5 μM, 2 ng/ml rhIL-1β, 24 hours, free base or trifluoroacetic acid salt form
Procedure: (§4) Frozen human articular chondrocyte cell strain HC30-0198 (described in Example 1) was thawed, and cultured in monolayer in T150 tissue culture flasks (Corning Costar, Cambridge, Mass.) as described above to 1-5 days post-confluence. Test cultures were rinsed in PBS, and preincubated for 2 hours with 10 ml of serum-free DMEM containing 5 μM DBH (synthetic), in its free base or trifluoroacetic acid salt form. An additional 10 ml of serum-free DMEM containing 5 μM DBH, 4 ng/ml recombinant human interleukin-1β (rhIL-1β; final concentration of 2 ng/ml) (R&D Systems, Minneapolis, Minn.), and 2% antibiotic solution (final concentration of 1%), were then added for 24 hours.
(§5) Two control cultures were run in parallel: one without DBH (rhIL-1β alone), and another without DBH or rhIL-1β.
(§6) Total RNA was fixed to the membrane using a Stratalinker® 1800 UV Crosslinker (Stratagene, La Jolla, Calif.). […]
(§7) The blot was successively washed two times in 2×SSC/0.05% SDS (15 min/wash at room temperature), and two times in 0.1×SSC/0.1% SDS (30 minutes/wash at 65° C.). The blot was allowed to air dry, and the radioactive signal was visualized and quantified using a Fujifilm, BAS-1500 phosphorimager (Fuji, Stamford, Conn.). […]

[4] = system: cyclooxygenase II (COX2) mRNA; assay: northern blot, IL-1β-induced mRNA in human articular chondrocytes: COX2; format: cell-based; conditions: 5 μM, 2 ng/ml rhIL-1β, 24 hours, free base or trifluoroacetic acid salt form
Procedure: as §4, §5, §6, §7

[5] = system: tumor necrosis factor-α (TNF-α) mRNA; assay: northern blot, IL-1β-induced mRNA in human articular chondrocytes: TNF-α; format: cell-based; conditions: 5 μM, 2 ng/ml rhIL-1β, 24 hours, free base or trifluoroacetic acid salt form
Procedure: as §4, §5, §6, §7

[6] = ec-50 values ranging from hundreds of micromolar to no inhibition (data not shown)

Sequence of BTK (Bruton's agarnrnaglobulinaemia tyrosine kinase) (Q06187 whole entry, species assumed): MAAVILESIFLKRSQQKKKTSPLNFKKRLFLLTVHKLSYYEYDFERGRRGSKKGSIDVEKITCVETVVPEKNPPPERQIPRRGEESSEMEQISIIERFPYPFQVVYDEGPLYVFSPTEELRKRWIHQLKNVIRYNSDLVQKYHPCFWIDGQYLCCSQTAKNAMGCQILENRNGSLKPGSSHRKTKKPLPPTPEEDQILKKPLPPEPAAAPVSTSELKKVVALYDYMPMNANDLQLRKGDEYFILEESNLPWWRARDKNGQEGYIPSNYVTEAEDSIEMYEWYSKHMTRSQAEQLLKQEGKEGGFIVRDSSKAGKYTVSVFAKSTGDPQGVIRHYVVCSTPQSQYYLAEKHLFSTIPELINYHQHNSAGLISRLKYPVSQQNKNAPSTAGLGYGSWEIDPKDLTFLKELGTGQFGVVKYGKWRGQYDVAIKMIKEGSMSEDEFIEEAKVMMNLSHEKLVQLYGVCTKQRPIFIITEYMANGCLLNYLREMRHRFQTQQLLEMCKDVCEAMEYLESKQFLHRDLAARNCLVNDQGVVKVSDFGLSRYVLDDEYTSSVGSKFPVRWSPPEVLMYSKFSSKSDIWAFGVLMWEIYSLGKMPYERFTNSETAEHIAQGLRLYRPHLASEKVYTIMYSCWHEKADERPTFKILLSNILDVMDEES
Sequence of IGFR (Insulin-like growth factor receptor) protein tyrosine kinase (P08069 31-1367): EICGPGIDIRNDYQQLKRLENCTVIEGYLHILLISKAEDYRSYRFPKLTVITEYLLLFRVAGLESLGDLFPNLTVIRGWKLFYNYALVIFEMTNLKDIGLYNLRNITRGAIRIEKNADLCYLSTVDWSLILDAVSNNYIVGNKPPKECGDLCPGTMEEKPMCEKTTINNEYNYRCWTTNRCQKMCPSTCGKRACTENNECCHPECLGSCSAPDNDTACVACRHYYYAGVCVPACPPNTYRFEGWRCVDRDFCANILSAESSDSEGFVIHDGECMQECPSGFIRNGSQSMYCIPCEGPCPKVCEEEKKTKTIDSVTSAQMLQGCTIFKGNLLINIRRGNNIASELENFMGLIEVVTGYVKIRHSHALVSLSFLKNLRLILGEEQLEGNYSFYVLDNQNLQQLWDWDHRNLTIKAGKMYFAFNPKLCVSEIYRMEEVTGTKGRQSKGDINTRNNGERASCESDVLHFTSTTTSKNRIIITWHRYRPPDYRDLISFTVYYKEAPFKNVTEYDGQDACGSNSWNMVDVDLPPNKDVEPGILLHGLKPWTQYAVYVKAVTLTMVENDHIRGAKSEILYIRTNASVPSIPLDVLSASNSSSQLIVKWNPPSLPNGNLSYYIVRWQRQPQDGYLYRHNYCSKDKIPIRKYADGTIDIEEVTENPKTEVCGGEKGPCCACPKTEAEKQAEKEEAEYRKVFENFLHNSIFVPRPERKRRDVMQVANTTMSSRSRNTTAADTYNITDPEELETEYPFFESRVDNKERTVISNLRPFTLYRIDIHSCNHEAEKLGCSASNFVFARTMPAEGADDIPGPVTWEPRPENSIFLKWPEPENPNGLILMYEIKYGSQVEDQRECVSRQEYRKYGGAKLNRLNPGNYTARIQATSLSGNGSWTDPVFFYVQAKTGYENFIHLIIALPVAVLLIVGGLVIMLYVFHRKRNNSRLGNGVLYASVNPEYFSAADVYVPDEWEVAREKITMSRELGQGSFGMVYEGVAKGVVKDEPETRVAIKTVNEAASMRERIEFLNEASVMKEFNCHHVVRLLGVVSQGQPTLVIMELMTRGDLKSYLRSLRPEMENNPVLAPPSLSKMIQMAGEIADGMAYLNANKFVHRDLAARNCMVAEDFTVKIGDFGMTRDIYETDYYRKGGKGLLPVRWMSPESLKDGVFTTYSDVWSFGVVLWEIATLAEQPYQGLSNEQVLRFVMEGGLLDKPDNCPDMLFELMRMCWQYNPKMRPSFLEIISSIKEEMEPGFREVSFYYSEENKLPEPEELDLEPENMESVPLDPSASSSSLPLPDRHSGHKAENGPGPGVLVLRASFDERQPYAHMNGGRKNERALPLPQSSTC

`NC1=NC(=O)C(=C2CCNC(=O)c3[nH]ccc32)N1` [DBH, 4-(2-amino-4-oxo-2-imidazolin-5-ylidene)-4,5,6,7-tetrahydropyrrolo(2,3-c) azepine-8-one] was tested, and the “Inhibition of BTK” value [1, 6] was “weak”, the “Inhibition of IGFR” value [2, 6] was “weak” and the “inhibition of IL-1β-induced upregulation of collagenase 1 (MMP1) mRNA” value [3] was “inhibit to various degrees”. The “inhibition of IL-1β-induced upregulation of cyclooxygenase II (COX2) mRNA” value [4] was “inhibit to various degrees” and the “inhibition of IL-1β-induced upregulation of tumor necrosis factor-α (TNF-α) mRNA” value [5] was “inhibit to various degrees”.
`NC1=NC(=O)C(=C2CCNC(=O)c3[nH]ccc32)N1` [DBH-2FB] was tested, and the IC50 ([1]; values for the four kinases range from 1971 μM to no inhibition, read-out: α-50 value for BTK) was ≥ 1.97 mM and the IC50 ([2]; values for the four kinases range from 1971 μM to no inhibition, read-out: α-50 value for IGFR) was ≥ 1.97 mM.
